Experimental data reported in ChEMBL document CHEMBL1201862, “PubChem BioAssay data set” (2004).
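Exposure lasted 48 hours, with cells grown in 96-well plates and compounds tested at five concentrations. GI50 marks 50% less growth.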 Active and inactive are the calls of the source. Cut-off read from the data, not from the text of the source: active = GI50 up to about 1.1 µM and inactive = higher.

What was measured:
Experiment in all cases: DTP human tumour cell line panel, 48 h
[1] = test system: CCRF-CEM
[2] = test system: MCF7
[3] = test system: LOX IMVI
[4] = test system: SK-MEL-2
[5] = test system: NCI-H23
[6] = test system: OVCAR-8
[7] = test system: K562
[8] = test system: A498
[9] = test system: HOP-62
[10] = test system: OVCAR-5
[11] = test system: HL-60
[12] = test system: BT-549
[13] = test system: TK-10
[14] = test system: HCC 2998
[15] = test system: 786-0
[16] = test system: DU-145
[17] = test system: HCT-15
[18] = test system: ACHN
[19] = test system: SW-620
[20] = test system: HT-29
[21] = test system: NCI/ADR-RES
[22] = test system: NCI-H226
[23] = test system: CAKI-1
[24] = test system: IGROV-1
[25] = test system: MDA-MB-435
[26] = test system: SF-295
[27] = test system: OVCAR-4
[28] = test system: RPMI-8226
[29] = test system: KM12
[30] = test system: MDA-N
[31] = test system: SF-539
[32] = test system: T47D
[33] = test system: A549
[34] = test system: SN12C
[35] = test system: SR
[36] = test system: SNB-19
[37] = test system: U-251
[38] = test system: EKVX
[39] = test system: HCT-116
[40] = test system: SK-MEL-28
[41] = test system: PC-3
[42] = test system: COLO 205
[43] = test system: SK-MEL-5
[44] = test system: UACC-62
[45] = test system: UO-31
[46] = test system: M14
[47] = test system: OVCAR-3
[48] = test system: MDA-MB-231
[49] = test system: UACC-257
[50] = test system: NCI-H522
[51] = test system: MOLT-4
[52] = test system: HOP-92
[53] = test system: SK-OV-3
[54] = test system: Hs-578T
[55] = test system: NCI-H460
[56] = test system: SF-268
[57] = test system: SNB-75

Measured: GI50

CC(C)(C)N(Cc1ccc2c(c1)OCO2)C(=O)/C=C\Sc1ccccc1
63.8 µM: [17]
inactive: [1] 43.5 µM | [2] 51.8 µM | [3] 77.8 µM | [4] 25.2 µM | [5] > 100 µM | [6] > 100 µM | [7] 42.9 µM | [8] 71 µM | [9] > 100 µM | [10] > 100 µM | [11] 37.1 µM | [12] 42.6 µM | [13] > 100 µM | [14] 97.1 µM | [15] > 100 µM | [16] > 100 µM | [18] > 100 µM | [19] 99.8 µM | [20] 28.8 µM | [21] 89.5 µM | [22] 68.2 µM | [23] > 100 µM | [24] 83.2 µM | [25] 25.8 µM | [26] > 100 µM | [27] 77.8 µM | [28] 30.3 µM | [29] 81.8 µM | [30] 19.5 µM | [31] > 100 µM | [32] 21.4 µM | [33] 47 µM | [34] > 100 µM | [35] 4.44 µM | [36] > 100 µM | [37] 63.7 µM | [38] 60.8 µM | [39] 23.9 µM | [40] > 100 µM | [41] 38.1 µM | [42] 45.1 µM | [43] 53.2 µM | [44] > 100 µM | [45] 43 µM | [46] 77.1 µM | [47] > 100 µM | [48] > 100 µM | [49] 71.1 µM | [50] 6.98 µM | [51] 21.1 µM | [52] 14.2 µM | [53] > 100 µM

O=c1[nH]c2ccccc2c(=O)n1/N=C/c1ccc(O)cc1
inactive: [1] 66.4 µM | [2] > 100 µM | [3] 60.4 µM | [4] 66.7 µM | [5] > 100 µM | [6] 48.2 µM | [7] > 100 µM | [8] > 100 µM | [9] 20.9 µM | [10] > 100 µM | [11] > 100 µM | [12] 64.3 µM | [13] > 100 µM | [15] 30.8 µM | [16] > 100 µM | [18] > 100 µM | [19] > 100 µM | [20] > 100 µM | [21] 50.9 µM | [22] > 100 µM | [23] > 100 µM | [24] > 100 µM | [25] > 100 µM | [54] 31.7 µM | [26] 50.7 µM | [28] > 100 µM | [29] > 100 µM | [31] 66.5 µM | [55] > 100 µM | [32] > 100 µM | [33] > 100 µM | [34] 55.2 µM | [35] > 100 µM | [36] 36 µM | [37] 79.4 µM | [38] > 100 µM | [39] > 100 µM | [40] > 100 µM | [41] 73.5 µM | [42] > 100 µM | [43] > 100 µM | [44] 42.4 µM | [45] > 100 µM | [56] 42.2 µM | [46] > 100 µM | [57] 41.4 µM | [47] > 100 µM | [48] 45.5 µM | [49] > 100 µM | [51] > 100 µM | [52] 26.1 µM | [53] > 100 µM
> 100 µM: [17]
